This is an account of results in patent US20230295197A1, “STAT5 and STAT6 Degraders and Uses Thereof” (REGENTS OF THE UNIVERSITY OF MICHICAN, priority 2022, published 2023).

For this experiment, the target named is T1, STAT6 (Homo sapiens, UniProt P42226).
T1 construct: endogenous in cells; host or cells: MOLM-16, KU-812, SKNO1, MB231, L1236
T1 sequence (P42226 1-847): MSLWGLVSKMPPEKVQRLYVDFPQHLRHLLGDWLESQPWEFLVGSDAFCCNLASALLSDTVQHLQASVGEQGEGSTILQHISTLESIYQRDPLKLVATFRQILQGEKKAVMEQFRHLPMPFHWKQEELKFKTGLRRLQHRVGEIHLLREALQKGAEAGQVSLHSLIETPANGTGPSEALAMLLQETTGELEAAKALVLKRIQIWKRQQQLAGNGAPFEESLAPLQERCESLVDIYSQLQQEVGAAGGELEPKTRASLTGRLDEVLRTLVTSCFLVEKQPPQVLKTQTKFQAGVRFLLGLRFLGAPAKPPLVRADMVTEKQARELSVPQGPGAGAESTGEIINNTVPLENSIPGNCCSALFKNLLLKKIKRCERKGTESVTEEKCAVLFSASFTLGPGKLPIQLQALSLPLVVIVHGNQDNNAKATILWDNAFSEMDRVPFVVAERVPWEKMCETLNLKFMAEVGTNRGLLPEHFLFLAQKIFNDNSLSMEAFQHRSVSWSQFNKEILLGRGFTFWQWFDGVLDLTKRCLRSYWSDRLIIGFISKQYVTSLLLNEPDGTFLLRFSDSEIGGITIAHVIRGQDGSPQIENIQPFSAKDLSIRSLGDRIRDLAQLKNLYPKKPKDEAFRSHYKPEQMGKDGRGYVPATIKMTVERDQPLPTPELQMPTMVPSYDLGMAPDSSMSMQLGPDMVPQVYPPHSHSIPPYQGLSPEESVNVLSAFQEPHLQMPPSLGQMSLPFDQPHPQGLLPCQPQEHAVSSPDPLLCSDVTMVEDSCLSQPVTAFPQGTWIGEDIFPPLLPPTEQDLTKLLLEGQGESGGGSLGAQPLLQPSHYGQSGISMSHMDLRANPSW
The experiment is described as follows: Immunoblotting (Western blot) analysis of STAT6 degradation efficiency of degraders in treated cells. Format: cell-based. Here is the method: Evaluation of the degradation efficiency of degraders may be accomplished by immunoblotting analysis. The representative general protocol is the following:
Cells are maintained in the appropriate culture medium with 10% FBS at 37° C. and an atmosphere of 5% CO2. Cell lines are used within three months of thawing fresh vials. Cells are lysed 1× Cell Lysis Buffer (Cell Signaling Technology, #9803), resolved by SDS-PAGE NuPAGE gel (Thermo Fisher Scientific), and transferred to a PVDF membrane (Millipore). Membranes are blocked using Odyssey TBS Blocker Buffer (LI-COR). IRDye 680RD and 800CW Dye-labeled secondary antibodies (LI-COR) are used. The washed membranes are scanned using Odyssey CLx imager (LI-COR). The intensity of Western blot signaling is quantitated using the Odyssey software. Primary antibodies used are: STAT5 Rabbit mAb (Cell Signaling Technology, #94205), STAT6 Rabbit mAb (Cell Signaling Technology, #5397) and GAPDH mouse monoclonal antibody (Santa Cruz Biotechnology, sc-47724).
To evaluate the degradation efficiency of degraders, immunoblotting analysis was performed. The general protocol is the following.
About 1 million cells for each data point were treated with compounds at indicated concentrations and durations. Untreated and treated cells in cell culture medium were transferred into tubes, followed by centrifugation at 3,000 rpm and 4° C. for 6 min Supernatants were removed from tubes and radioimmunoprecipitation assay (RIPA) lysis buffer supplemented with 1% protease inhibitor cocktail (Fisher Scientific cat. PI87786) and phosphatase inhibitor (Roche cat. 04906837001) were added to tubes containing the remaining cell pellets. The tubes were then left on ice for 30 min and placed in a −80° C. freezer. Subsequently they were thawed in 37° C. water, then centrifuged at 14,000 rpm for 15 min and the cell lysates transferred to new tubes. The concentration of total proteins in each tube was calculated using the Pierce BCA protein Assay kit (cat. 23225). Based on the calculated protein concentration, cell lysates containing approximately the same amount of proteins were transferred to new tubes, then distilled water and 4× Protein Sample Loading Buffer for Western Blots (LI-COR cat. 928-40004) supplemented with 20% of mercaptoethanol (Sigma Aldrich cat. M6250) were added on ice. The cell lysates were then reduced and denatured at 95° C. for 5 min. From the tubes containing cell lysates an equal amount of protein samples (20-40 μg) was loaded into precast 8%, 10%, 4%-12%, or 4%-20% Tris-glycine gels (Novex) filled with Tris-glycine SDS running buffer. After the proteins were resolved, they were transferred onto Immobile-FL PVDF Membrane (Millipore Sigma cat. IPFL00010), using Mini Trans-Blot Electrophoretic Transfer Cell (Bio-Rad 1703930). The membranes were blocked with Intercept Blocking Buffer (LI-COR cat. 927-70001) in LI-COR Western Blot boxes for 1 h at rt. The membranes were washed with 1× Tris-buffered saline-Tween-20 (TBST, 1× solution was made from 20×TBST solution, ThermoFisher Scientific cat. 28360) for 5 min 4 times. The membranes were incubated overnight at 4° C. in Intercept Blocking Buffer supplemented with primary antibodies (normally antibody:buffer 1:1000) and Tween-20. The membranes were washed with TBST for 5 min 4 times and were incubated with Intercept Blocking Buffer supplemented with IRDye 800CE Secondary Antibodies, IRDye 680RD Secondary Antibodies (LI-COR biosciences), Tween-20, and 10% SDS solution, for 1 h at rt. The membranes were then washed with TBST for 5 min 4 times and rinsed with deionized water before drying and scanning with Odyssey Dlx Amazing System (LI-COR). The immunoblots were finally quantified by the software.
In general terms: In western blotting, separated proteins are transferred to a membrane and probed.

Setting [1] is: L1236 cells, read-out: DC50 S6 L1236.
[2] abbreviates: MOLM-16 cells, class symbols, read-out: DC50 S6 MOLM-16.

Each structure is given as a SMILES string. Read-outs that look alike come from different tables or passages of the source. *1 amine or outer side, *2 acyl side, *3 side chain or, on linkers, in order; H or OH if unused. Where a SMILES comes first, the peptide text is derived from it. [ ]: non-standard residue; d: D form. The star is where a group is joined. Benzothienyl2CO(5-CF2PO3H2) = O=C(c1cc2cc(C(F)(F)P(=O)(O)O)ccc2s1)*; βAla(N-(4-Br-phenyl)) = O=C(CCN(c1ccc(Br)cc1)[*:1])[*:2]; NHBn(4-(4-Me-thiazol-5-yl)) = Cc1ncsc1-c1ccc(CN*)cc1; Hyp = O=C(O)[C@@H]1C[C@@H](O)CN1; Tle = CC(C)(C)[C@H](N)C(=O)O; Aoc = NCCCCCCCC(=O)O Bounds are passed on as bounds.

In general, DC50 refers to the midpoint of the concentration-degradation curve.

Consider `Cc1ncsc1-c1ccc([C@H](C)NC(=O)[C@@H]2C[C@@H](O)CN2C(=O)[C@@H](NC(=O)CCCCCCCCCNC(=O)CC(=O)N2CCN(C(=O)[C@@H](NC(=O)c3cc4cc(C(F)(F)P(=O)(O)O)ccc4s3)C(C)(C)C)[C@H](C(=O)N3CCO[C@H](c4ccccc4)C3)C2)C(C)(C)C)cc1` [Compound 451, (difluoro(2-(((S)-1-((S)-4-(3-((10-(((S)-1-((2S,4R)-4-hydroxy-2-(((S)-1-(4-(4-methylthiazol-5-yl)phenyl)ethyl)carbamoyl)pyrrolidin-1-yl)-3,3-dimethyl-1-oxobutan-2-yl)amino)-10-oxodecyl)amino)-3-oxopropanoyl)-2-((R)-2-phenylmorpholine-4-carbonyl)piperazin-1-yl)-3,3-dimethyl-1-oxobutan-2-yl)carbamoyl)benzo[b]thiophen-5-yl)methyl)phosphonic acid], for which the DC50 is over 10 µM under setting [1] and over 10 µM under setting [2].

As for `Cc1ncsc1-c1ccc(CNC(=O)[C@@H]2C[C@@H](O)CN2C(=O)[C@@H](NC(=O)CCCCCCCNC(=O)CCN(C(=O)[C@@H]2CCCN2C(=O)[C@@H](NC(=O)c2cc3cc(C(F)(F)P(=O)(O)O)ccc3s2)C(C)(C)C)c2ccc(Br)cc2)C(C)(C)C)cc1` [Compound 398] ({Benzothienyl2CO(5-CF2PO3H2)}-[Tle]P[βAla(N-(4-Br-phenyl))][Aoc][Tle][Hyp]-{NHBn(4-(4-Me-thiazol-5-yl))}), the DC50 (read-out: DC50 S6 MB231, MB231 cells) is over 10 µM.

Consider `CC(C)(C)[C@H](NC(=O)c1cc2cc(C(F)(F)P(=O)(O)O)ccc2s1)C(=O)N1C[C@@H](OCC(=O)NCCCCCCCCCC#Cc2cccc3c2C(=O)N(C2CCC(=O)NC2=O)C3=O)C[C@H]1C(=O)N1CCO[C@H](c2ccccc2)C1` (stereo partly drawn) [Compound 491, ((2-(((2S)-1-((2S,4S)-4-(2-((11-(2-(2,6-dioxopiperidin-3-yl)-1,3-dioxoisoindolin-4-yl)undec-10-yn-1-yl)amino)-2-oxoethoxy)-2-((R)-2-phenylmorpholine-4-carbonyl)pyrrolidin-1-yl)-3,3-dimethyl-1-oxobutan-2-yl)carbamoyl)benzo[b]thiophen-5-yl)difluoromethyl)phosphonic acid], for which the DC50 under setting [2] was over 10 µM.

For the compound `CC(C)(C)[C@H](NC(=O)c1cc2cc(C(F)(F)P(=O)(O)O)ccc2s1)C(=O)N1CCN(C(=O)CC(=O)NCCCCC#Cc2cccc3c2C(=O)N(C2CCC(=O)NC2=O)C3=O)C[C@H]1C(=O)N1CCC[C@H](c2ccccc2)C1` (stereo partly drawn) [Compound 527, ((2-(((2S)-1-((2S)-4-(3-((6-(2-(2,6-dioxopiperidin-3-yl)-1,3-dioxoisoindolin-4-yl)hex-5-yn-1-yl)amino)-3-oxopropanoyl)-2-((R)-3-phenylpiperidine-1-carbonyl)piperazin-1-yl)-3,3-dimethyl-1-oxobutan-2-yl)carbamoyl)benzo[b]thiophen-5-yl)difluoromethyl)phosphonic acid], the DC50 under setting [2] is over 10 µM.

In the case of `CC(C)(C)[C@H](NC(=O)c1cc2cc(C(F)(F)P(=O)(O)O)ccc2s1)C(=O)N1Cc2cc(OCC(=O)NCCCCCCCCCC#Cc3cccc4c3C(=O)N(C3CCC(=O)NC3=O)C4=O)ccc2C[C@H]1C(=O)N1CCO[C@H](c2ccccc2)C1` (stereo partly drawn) [Compound 547, ((2-(((2S)-1-((3S)-7-(2-((11-(2-(2,6-dioxopiperidin-3-yl)-1,3-dioxoisoindolin-4-yl)undec-10-yn-1-yl)amino)-2-oxoethoxy)-3-((R)-2-phenylmorpholine-4-carbonyl)-3,4-dihydroisoquinolin-2(1H)-yl)-3,3-dimethyl-1-oxobutan-2-yl)carbamoyl)benzo[b]thiophen-5-yl)difluoromethyl)phosphonic acid], under setting [2], the DC50 was over 10 µM.

As for `CC(C)(C)[C@H](NC(=O)c1cc2cc(C(F)(F)P(=O)(O)O)ccc2s1)C(=O)N1C[C@@H](OCCCCCCCC#Cc2cccc3c2CN(C2CCC(=O)NC2=O)C3=O)C[C@H]1C(=O)N1CCO[C@H](c2ccccc2)C1` (stereo partly drawn) [Compound 595, ((2-(((2S)-1-((2S,4S)-4-((9-(2-(2,6-dioxopiperidin-3-yl)-1-oxoisoindolin-4-yl)non-8-yn-1-yl)oxy)-2-((R)-2-phenylmorpholine-4-carbonyl)pyrrolidin-1-yl)-3,3-dimethyl-1-oxobutan-2-yl)carbamoyl)benzo[b]thiophen-5-yl)difluoromethyl)phosphonic acid], under setting [2], the DC50 was under 0.1 µM.

Consider `O=C1CCC(N2Cc3c(C#CCCCCCC(=O)N4CC[C@H]5CC[C@@H](C(=O)N6CCOC(c7ccc(F)c(Cl)c7)C6)N5C(=O)[C@@H](NC(=O)c5cc6cc(C(F)(F)P(=O)(O)O)ccc6s5)C4)cccc3C2=O)C(=O)N1` (stereo partly drawn) [Compound 564, ((2-(((5S,8S,10aR)-8-(2-(3-chloro-4-fluorophenyl)morpholine-4-carbonyl)-3-(8-(2-(2,6-dioxopiperidin-3-yl)-1-oxoisoindolin-4-yl)oct-7-ynoyl)-6-oxodecahydropyrrolo[1,2-a][1,5]diazocin-5-yl)carbamoyl)benzo[b]thiophen-5-yl)difluoromethyl)phosphonic acid], for which the DC50 runs as follows: under setting [1], over 10 µM; under setting [2], over 10 µM.

For `Cc1ncsc1-c1ccc([C@H](C)NC(=O)[C@@H]2C[C@@H](O)CN2C(=O)[C@@H](NC(=O)CCCCCCCCCNC(=O)COc2ccc3c(c2)CN(C(=O)[C@@H](NC(=O)c2cc4cc(C(F)(F)P(=O)(O)O)ccc4s2)C(C)(C)C)[C@H](C(=O)N2CCO[C@H](c4ccccc4)C2)C3)C(C)(C)C)cc1` [Compound 469, (difluoro(2-(((S)-1-((S)-7-(2-((10-(((S)-1-((2S,4R)-4-hydroxy-2-(((S)-1-(4-(4-methylthiazol-5-yl)phenyl)ethyl)carbamoyl)pyrrolidin-1-yl)-3,3-dimethyl-1-oxobutan-2-yl)amino)-10-oxodecyl)amino)-2-oxoethoxy)-3-((R)-2-phenylmorpholine-4-carbonyl)-3,4-dihydroisoquinolin-2(1H)-yl)-3,3-dimethyl-1-oxobutan-2-yl)carbamoyl)benzo[b]thiophen-5-yl)methyl)phosphonic acid], the DC50 by setting is: under setting [1], over 10 µM; under setting [2], over 10 µM.
